In patent US8959984B2, “Proteome-wide quantification of small molecule binding to cellular target proteins” (priority 2007, dated 2015):
Read-outs that look alike come from different tables or passages of the source.

Key:
RIPK2 = RIPK2 (Homo sapiens, UniProt O43353); assay: binding to immobilized V16742 (IVA1/IVA2, HeLa lysate, MS)
JNK2 = JNK2 (Homo sapiens, UniProt P45984); assay: as above
BRD4 = BRD4 (Homo sapiens, UniProt O60885); assay: as above
JAK1 = JAK1 (Homo sapiens, UniProt P23458); assay: as above
Sequence of JAK1 (P23458 whole entry): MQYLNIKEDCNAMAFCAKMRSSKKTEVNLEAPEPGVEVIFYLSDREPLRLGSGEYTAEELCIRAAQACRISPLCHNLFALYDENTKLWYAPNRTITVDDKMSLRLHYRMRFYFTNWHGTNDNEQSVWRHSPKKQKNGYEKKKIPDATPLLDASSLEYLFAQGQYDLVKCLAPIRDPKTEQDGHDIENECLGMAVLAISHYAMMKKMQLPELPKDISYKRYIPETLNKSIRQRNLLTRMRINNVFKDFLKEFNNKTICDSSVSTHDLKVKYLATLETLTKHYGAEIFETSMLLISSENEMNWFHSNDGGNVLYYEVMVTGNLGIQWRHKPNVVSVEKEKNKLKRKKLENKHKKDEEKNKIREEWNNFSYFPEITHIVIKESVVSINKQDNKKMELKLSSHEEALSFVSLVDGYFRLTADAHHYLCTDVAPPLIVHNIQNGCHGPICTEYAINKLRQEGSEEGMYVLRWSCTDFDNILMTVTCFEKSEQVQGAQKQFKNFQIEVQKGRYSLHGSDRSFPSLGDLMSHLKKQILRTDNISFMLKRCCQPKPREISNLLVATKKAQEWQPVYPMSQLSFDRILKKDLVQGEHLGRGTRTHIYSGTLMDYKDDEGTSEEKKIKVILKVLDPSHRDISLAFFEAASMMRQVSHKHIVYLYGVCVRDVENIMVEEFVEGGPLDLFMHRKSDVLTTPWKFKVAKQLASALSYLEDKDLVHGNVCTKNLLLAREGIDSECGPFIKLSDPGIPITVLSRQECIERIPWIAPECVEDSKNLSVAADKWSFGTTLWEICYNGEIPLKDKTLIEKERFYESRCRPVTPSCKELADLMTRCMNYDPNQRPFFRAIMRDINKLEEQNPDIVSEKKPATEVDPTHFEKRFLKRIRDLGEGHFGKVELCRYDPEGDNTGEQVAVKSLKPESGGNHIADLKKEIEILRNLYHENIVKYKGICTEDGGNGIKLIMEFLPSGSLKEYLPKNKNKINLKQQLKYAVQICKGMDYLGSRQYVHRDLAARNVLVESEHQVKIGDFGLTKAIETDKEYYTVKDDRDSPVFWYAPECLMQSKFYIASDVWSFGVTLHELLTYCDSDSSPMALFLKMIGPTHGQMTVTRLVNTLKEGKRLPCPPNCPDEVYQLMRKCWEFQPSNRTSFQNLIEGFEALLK

ERK2 = ERK2 (Homo sapiens, UniProt P28482); assay: as above; details: for Percent bound at 1.87 μM 16742 conc / Percent bound at 8.74 μM 16742 conc / Percent bound at 52 μM 16742 conc / Kd: Erk2
Sequence of ERK2 (P28482 whole entry): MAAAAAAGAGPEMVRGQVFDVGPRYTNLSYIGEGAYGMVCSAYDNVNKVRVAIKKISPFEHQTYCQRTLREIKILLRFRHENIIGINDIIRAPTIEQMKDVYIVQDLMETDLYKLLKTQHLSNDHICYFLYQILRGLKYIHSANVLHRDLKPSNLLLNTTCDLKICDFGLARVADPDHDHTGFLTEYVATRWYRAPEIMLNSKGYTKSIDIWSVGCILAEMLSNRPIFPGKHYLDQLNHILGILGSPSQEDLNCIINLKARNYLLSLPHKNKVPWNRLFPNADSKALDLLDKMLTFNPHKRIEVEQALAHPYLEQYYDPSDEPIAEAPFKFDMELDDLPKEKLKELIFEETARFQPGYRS

BUB1 = molecular target: T1, BUB1 (Homo sapiens, UniProt O43683); assay: as above
T1 construct: endogenous in cells; host or cells: HeLa S3
T1 sequence (O43683 whole entry): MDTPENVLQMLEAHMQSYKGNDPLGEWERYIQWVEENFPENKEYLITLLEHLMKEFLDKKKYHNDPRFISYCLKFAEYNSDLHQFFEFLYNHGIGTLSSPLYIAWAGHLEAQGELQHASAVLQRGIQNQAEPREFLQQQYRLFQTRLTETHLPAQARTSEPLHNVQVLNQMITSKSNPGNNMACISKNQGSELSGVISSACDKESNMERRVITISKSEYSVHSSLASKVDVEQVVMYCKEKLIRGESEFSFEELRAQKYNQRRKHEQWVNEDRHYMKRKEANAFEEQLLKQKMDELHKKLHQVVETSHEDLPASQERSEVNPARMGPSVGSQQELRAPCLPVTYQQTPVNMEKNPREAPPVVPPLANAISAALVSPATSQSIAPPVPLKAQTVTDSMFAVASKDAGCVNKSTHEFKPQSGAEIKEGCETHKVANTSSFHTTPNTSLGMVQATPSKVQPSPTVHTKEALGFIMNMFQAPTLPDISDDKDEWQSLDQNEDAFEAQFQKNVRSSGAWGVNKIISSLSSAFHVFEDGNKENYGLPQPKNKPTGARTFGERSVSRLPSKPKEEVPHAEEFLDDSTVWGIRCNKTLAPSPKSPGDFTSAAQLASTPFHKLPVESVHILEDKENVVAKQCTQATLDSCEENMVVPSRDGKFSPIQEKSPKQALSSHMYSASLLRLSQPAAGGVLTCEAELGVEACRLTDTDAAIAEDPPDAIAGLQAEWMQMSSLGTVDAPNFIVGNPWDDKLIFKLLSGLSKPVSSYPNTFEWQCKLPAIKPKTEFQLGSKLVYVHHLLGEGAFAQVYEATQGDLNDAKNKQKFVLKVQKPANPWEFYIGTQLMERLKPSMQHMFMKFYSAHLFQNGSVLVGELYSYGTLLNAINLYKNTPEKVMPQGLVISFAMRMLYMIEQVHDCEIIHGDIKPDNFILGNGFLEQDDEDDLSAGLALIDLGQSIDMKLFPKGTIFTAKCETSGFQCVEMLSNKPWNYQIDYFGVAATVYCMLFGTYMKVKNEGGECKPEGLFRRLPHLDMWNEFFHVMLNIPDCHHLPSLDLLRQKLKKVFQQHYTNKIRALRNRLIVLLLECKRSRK

TLK2 = molecular target: T2, TLK2 (Homo sapiens, UniProt Q86UE8); assay: as above
T2 construct: endogenous in cells; host or cells: HeLa S3
T2 sequence (Q86UE8 whole entry): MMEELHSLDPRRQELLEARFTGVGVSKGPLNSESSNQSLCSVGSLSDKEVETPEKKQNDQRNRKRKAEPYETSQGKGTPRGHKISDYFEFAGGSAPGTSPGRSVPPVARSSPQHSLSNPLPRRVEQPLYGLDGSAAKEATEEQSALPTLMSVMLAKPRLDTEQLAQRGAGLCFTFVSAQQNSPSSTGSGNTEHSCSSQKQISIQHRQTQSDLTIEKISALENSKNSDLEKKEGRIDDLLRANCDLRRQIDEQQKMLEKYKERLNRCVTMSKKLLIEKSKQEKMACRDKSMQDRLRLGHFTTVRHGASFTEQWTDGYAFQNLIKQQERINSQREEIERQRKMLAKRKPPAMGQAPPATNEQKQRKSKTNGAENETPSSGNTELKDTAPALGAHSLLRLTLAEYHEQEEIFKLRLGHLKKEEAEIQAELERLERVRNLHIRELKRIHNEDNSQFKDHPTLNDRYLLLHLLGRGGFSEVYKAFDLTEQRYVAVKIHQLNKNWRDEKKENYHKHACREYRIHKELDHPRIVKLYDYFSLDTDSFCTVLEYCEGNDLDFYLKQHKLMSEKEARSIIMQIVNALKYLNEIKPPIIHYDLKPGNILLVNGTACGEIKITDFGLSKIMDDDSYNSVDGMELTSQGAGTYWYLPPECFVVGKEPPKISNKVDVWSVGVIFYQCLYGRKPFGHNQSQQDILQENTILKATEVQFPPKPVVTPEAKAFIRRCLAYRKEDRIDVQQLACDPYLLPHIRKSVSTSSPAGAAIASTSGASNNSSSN

EphA2 = EphA2 (Homo sapiens, UniProt P29317); assay: as above
CK1d = CK1d (Homo sapiens, UniProt P48730); assay: as above
Sequence of CK1d (P48730 whole entry): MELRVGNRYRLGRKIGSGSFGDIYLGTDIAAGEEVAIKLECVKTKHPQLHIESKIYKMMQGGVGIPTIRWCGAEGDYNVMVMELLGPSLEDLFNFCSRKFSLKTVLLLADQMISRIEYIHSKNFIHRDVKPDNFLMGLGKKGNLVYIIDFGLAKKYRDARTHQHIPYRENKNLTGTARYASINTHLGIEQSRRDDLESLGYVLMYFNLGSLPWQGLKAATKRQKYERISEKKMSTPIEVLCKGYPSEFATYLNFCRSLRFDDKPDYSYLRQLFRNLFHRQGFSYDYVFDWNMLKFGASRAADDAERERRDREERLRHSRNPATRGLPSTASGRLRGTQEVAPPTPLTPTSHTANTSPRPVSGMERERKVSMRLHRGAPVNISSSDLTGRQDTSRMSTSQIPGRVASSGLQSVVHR

EphB2 = molecular target: T3, EphB2 (Homo sapiens, UniProt P29323); assay: as above
T3 sequence (P29323 19-1055): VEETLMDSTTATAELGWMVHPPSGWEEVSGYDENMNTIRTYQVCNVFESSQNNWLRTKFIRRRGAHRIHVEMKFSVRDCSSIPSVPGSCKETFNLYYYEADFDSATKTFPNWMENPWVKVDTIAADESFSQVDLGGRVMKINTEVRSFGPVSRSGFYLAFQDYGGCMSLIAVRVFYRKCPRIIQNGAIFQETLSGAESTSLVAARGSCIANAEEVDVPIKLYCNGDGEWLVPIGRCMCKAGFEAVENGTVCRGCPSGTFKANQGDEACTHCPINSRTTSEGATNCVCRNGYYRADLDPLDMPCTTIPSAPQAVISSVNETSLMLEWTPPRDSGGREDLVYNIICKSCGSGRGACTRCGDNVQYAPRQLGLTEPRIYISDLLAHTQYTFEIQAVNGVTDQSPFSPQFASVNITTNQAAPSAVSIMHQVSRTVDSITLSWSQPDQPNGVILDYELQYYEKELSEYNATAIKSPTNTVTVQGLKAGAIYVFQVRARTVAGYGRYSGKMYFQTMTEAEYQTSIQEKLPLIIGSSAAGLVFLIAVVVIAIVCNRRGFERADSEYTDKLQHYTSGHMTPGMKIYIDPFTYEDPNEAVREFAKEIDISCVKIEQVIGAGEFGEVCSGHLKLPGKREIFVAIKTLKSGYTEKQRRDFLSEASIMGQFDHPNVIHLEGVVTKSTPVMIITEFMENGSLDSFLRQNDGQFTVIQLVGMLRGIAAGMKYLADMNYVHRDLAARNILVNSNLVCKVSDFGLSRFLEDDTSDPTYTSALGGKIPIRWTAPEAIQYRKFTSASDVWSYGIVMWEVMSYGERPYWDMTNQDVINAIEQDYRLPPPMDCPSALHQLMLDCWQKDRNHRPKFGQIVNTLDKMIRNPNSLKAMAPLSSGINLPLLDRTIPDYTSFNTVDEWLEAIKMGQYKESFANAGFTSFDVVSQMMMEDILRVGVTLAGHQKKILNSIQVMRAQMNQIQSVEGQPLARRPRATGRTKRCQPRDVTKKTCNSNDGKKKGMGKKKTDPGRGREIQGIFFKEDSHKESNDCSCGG

NUDT12 = NUDT12 (Homo sapiens, UniProt Q9BQG2)
SNRPE = SNRPE (Homo sapiens, UniProt P62304)
Sequence of SNRPE (P62304 whole entry): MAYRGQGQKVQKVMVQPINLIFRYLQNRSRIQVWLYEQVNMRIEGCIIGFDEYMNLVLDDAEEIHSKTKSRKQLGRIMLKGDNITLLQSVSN

RPL27A = RPL27A (Homo sapiens, UniProt P46776)
CK1e (CSNK1E) = CK1e (CSNK1E) (Homo sapiens, UniProt P49674)
Sequence of CK1e (CSNK1E) (P49674 whole entry): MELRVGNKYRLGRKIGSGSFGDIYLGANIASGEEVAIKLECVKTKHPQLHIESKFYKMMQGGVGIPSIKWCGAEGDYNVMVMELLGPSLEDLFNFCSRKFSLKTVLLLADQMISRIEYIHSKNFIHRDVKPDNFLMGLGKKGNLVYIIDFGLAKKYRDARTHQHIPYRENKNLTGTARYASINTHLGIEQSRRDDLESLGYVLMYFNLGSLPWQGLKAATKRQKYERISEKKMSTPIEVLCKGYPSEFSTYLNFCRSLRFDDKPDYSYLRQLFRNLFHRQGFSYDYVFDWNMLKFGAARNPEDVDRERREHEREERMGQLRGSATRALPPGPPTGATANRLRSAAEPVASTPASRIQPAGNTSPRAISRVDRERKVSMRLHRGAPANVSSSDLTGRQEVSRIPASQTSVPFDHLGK

[1] = immobilized V16742, read-out: Kd

Sequence of JNK2 (P45984 whole entry): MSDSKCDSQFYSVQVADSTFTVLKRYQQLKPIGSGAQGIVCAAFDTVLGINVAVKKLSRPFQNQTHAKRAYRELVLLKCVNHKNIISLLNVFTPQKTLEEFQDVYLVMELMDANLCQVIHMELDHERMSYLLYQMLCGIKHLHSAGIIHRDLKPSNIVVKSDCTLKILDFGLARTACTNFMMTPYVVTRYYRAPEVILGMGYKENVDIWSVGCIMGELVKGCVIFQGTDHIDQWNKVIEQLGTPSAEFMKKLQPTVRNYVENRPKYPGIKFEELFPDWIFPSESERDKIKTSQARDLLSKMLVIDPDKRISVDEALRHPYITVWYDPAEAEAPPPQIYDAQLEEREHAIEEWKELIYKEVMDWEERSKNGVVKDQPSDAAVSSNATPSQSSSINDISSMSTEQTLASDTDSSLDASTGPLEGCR

## CC(C)n1c(=O)ccc2cnc(Nc3ccc(OCCN)cc3)nc21 [V16742]
RIPK2
  affinity class of target for V16742: Moderate affinity target
JNK2
  affinity class of target for V16742: High affinity target
BRD4; [1]
  Kd: 32 µM
JAK1; [1]
  Kd: 11.1 µM
ERK2; ERK2
  affinity class of target for V16742: Low affinity target
BUB1; Experiment 1, 1.87 μM 16742
  Percent bound at various 16742 conc: 2.46%
BUB1; Experiment 1, 8.74 μM 16742
  Percent bound at various 16742 conc: 11.95%
BUB1; Experiment 1, 52 μM 16742
  Percent bound at various 16742 conc: 50.46%
BUB1; Experiment 2, 52 μM 16742
  Percent bound at various 16742 conc: 47.87%
BUB1; single Kd value, obtained from only one experiment
  Kd: 53.4 µM
TLK2; Experiment 1, 1.87 μM 16742
  Percent bound at various 16742 conc: 2.49%
TLK2; Experiment 1, 8.74 μM 16742
  Percent bound at various 16742 conc: 3.89%
TLK2; Experiment 1, 52 μM 16742
  Percent bound at various 16742 conc: 58.72%
TLK2; Experiment 1, read-out: Kd
  Kd: 47.3 µM
TLK2; Experiment 2, 1.87 μM 16742
  Percent bound at various 16742 conc: 1.24%
TLK2; Experiment 2, 8.74 μM 16742
  Percent bound at various 16742 conc: 3.73%
TLK2; Experiment 2, 52 μM 16742
  Percent bound at various 16742 conc: 41.78%
TLK2; Experiment 2, read-out: Kd
  Kd: 80 µM
TLK2; average of two experiments, read-out: Kd Avg
  Kd: 63.7 µM
EphA2
  Kd: 58.1 µM
EphA2; EphA2, Experiment 1, 1.87 μM 16742
  Percent bound at various 16742 conc: 3.91%
EphA2; EphA2, Experiment 1, 8.74 μM 16742
  Percent bound at various 16742 conc: 13.88%
EphA2; EphA2, Experiment 1, 52 μM 16742
  Percent bound at various 16742 conc: 54.66%
EphA2; EphA2, Experiment 2, 1.87 μM 16742
  Percent bound at various 16742 conc: 2.12%
EphA2; EphA2, Experiment 2, 8.74 μM 16742
  Percent bound at various 16742 conc: 7.66%
EphA2; EphA2, Experiment 2, 52 μM 16742
  Percent bound at various 16742 conc: 43.73%
EphA2; Kd, EphA2, Experiment 1
  Kd: 45.3 µM
EphA2; Kd, EphA2, Experiment 2
  Kd: 70.8 µM

## CC(C)n1c(=O)ccc2cnc(Nc3ccc(OCCN)cc3)nc21 [compound 16742]
RIPK2; EXPERIMENT 1
  Percent bound at 1.87 μM 16742 conc: 3.74%
  Percent bound at 8.74 μM 16742 conc: 42.39%
  Percent bound at 52 μM 16742 conc: 91.89%
RIPK2; EXPERIMENT 1, read-out: Kd
  Kd: 11.4 µM
RIPK2; EXPERIMENT 2
  Percent bound at 1.87 μM 16742 conc: 5.20%
  Percent bound at 8.74 μM 16742 conc: 38.79%
  Percent bound at 52 μM 16742 conc: 90.30%
RIPK2; EXPERIMENT 2, read-out: Kd
  Kd: 12.4 µM
RIPK2; read-out: Kd Avg
  Kd: 11.9 µM
CK1d; EXPERIMENT 1
  Percent bound at 1.87 μM 16742 conc: 16.07%
  Percent bound at 8.74 μM 16742 conc: 57.03%
  Percent bound at 52 μM 16742 conc: 87.27%
CK1d; EXPERIMENT 1, read-out: Kd
  Kd: 7.38 µM
CK1d; EXPERIMENT 2
  Percent bound at 1.87 μM 16742 conc: 19.73%
  Percent bound at 8.74 μM 16742 conc: 70.68%
  Percent bound at 52 μM 16742 conc: 87.40%
CK1d; EXPERIMENT 2, read-out: Kd
  Kd: 5.07 µM
CK1d; read-out: Kd Avg
  Kd: 6.23 µM
JNK2; EXPERIMENT 1
  Percent bound at 1.87 μM 16742 conc: 68.10%
  Percent bound at 8.74 μM 16742 conc: 89.45%
  Percent bound at 52 μM 16742 conc: 92.48%
JNK2; EXPERIMENT 1, read-out: Kd
  Kd: 0.91 µM
JNK2; EXPERIMENT 2
  Percent bound at 1.87 μM 16742 conc: 57.18%
  Percent bound at 8.74 μM 16742 conc: 75.70%
  Percent bound at 52 μM 16742 conc: 94.94%
JNK2; EXPERIMENT 2, read-out: Kd
  Kd: 1.69 µM
JNK2; read-out: Kd Avg
  Kd: 1.3 µM
BRD4; EXPERIMENT 1
  Percent bound at 1.87 μM 16742 conc: 0.33%
  Percent bound at 8.74 μM 16742 conc: 6.55%
  Percent bound at 52 μM 16742 conc: 73.70%
BRD4; EXPERIMENT 2
  Percent bound at 52 μM 16742 conc: 61.49%
BRD4; read-out: Kd Avg
  Kd: 32 µM
JAK1; EXPERIMENT 1
  Percent bound at 1.87 μM 16742 conc: 16.10%
  Percent bound at 8.74 μM 16742 conc: 75.89%
  Percent bound at 52 μM 16742 conc: 90.34%
JAK1; EXPERIMENT 1, read-out: Kd
  Kd: 4.76 µM
JAK1; EXPERIMENT 2
  Percent bound at 1.87 μM 16742 conc: 8.59%
  Percent bound at 8.74 μM 16742 conc: 30.74%
  Percent bound at 52 μM 16742 conc: 78.69%
JAK1; EXPERIMENT 2, read-out: Kd
  Kd: 17.4 µM
JAK1; read-out: Kd Avg
  Kd: 11.1 µM
EphB2; EXPERIMENT 1
  Percent bound at 1.87 μM 16742 conc: 4.79%
  Percent bound at 8.74 μM 16742 conc: 17.01%
  Percent bound at 52 μM 16742 conc: 66.97%
EphB2; EXPERIMENT 1, read-out: Kd
  Kd: 30.6 µM
EphB2; EXPERIMENT 2
  Percent bound at 1.87 μM 16742 conc: 2.86%
  Percent bound at 8.74 μM 16742 conc: 13.05%
  Percent bound at 52 μM 16742 conc: 57.74%
EphB2; EXPERIMENT 2, read-out: Kd
  Kd: 42.3 µM
EphB2; read-out: Kd Avg
  Kd: 36.5 µM
ERK2; EXPERIMENT 1
  Percent bound at 1.87 μM 16742 conc: 1.41%
  Percent bound at 8.74 μM 16742 conc: 5.40%
  Percent bound at 52 μM 16742 conc: 70.05%
ERK2; EXPERIMENT 1, read-out: Kd
  Kd: 35.1 µM
ERK2; EXPERIMENT 2
  Percent bound at 1.87 μM 16742 conc: 2.43%
  Percent bound at 8.74 μM 16742 conc: 5.90%
  Percent bound at 52 μM 16742 conc: 65.58%
ERK2; EXPERIMENT 2, read-out: Kd
  Kd: 38.5 µM
ERK2; read-out: Kd Avg
  Kd: 36.8 µM

## COc1cc2ncnc(Nc3ccc(F)c(Cl)c3)c2cc1OCCCN1CCOCC1 [gefitinib]
NUDT12
  rAVERAGE (10 nM/0 nM Gef.): 1.04
  rAVERAGE (100 nM/0 nM Gef.): 0.93
  rAVERAGE (1000 nM/0 nM Gef.): 0.92
  rAVERAGE (10000 nM/0 nM Gef.): 0.09
SNRPE
  rAVERAGE (10 nM/0 nM Gef.): 0.70
  rAVERAGE (100 nM/0 nM Gef.): 1.11
  rAVERAGE (1000 nM/0 nM Gef.): 0.74
  rAVERAGE (10000 nM/0 nM Gef.): 0.93
RPL27A
  rAVERAGE (10 nM/0 nM Gef.): 0.87
  rAVERAGE (100 nM/0 nM Gef.): 1.05
  rAVERAGE (1000 nM/0 nM Gef.): 0.81
  rAVERAGE (10000 nM/0 nM Gef.): 1.03
CK1e (CSNK1E)
  rAVERAGE (10 nM/0 nM Gef.): 0.80
  rAVERAGE (100 nM/0 nM Gef.): 1.00
  rAVERAGE (1000 nM/0 nM Gef.): 0.84
  rAVERAGE (10000 nM/0 nM Gef.): 0.59
